Measured values taken from US20070117770A1, “Human ribosomal DNA (rDNA) and ribosomal RNA (rRNA) nucleic acids and uses thereof” (Cylene Pharmaceuticals, Inc., priority 2005, published 2007).

Key:
Test in all cases: Protein kinase inhibition assay
Format in all cases: biochemical
[1] = molecular target: ARK5(h) (Homo sapiens, UniProt O60285); details: read-out: percent residual activity of ARK5(h)
Method: (§1) Certain compounds were tested for activity in protein kinase inhibition assays. All substrates were dissolved and diluted to working stocks in de-ionized water, apart from histone H1 (10× working stock in 20 mM MOPS pH 7.0), PDKtide (10× working stock in 50 mM Tris pH 7.0) ATF2 (which is typically stored at a 20× working stock in 50 mM Tris pH 7.5, 150 mM NaCl, 0.1 mM EGTA, 0.03% Brij-35, 50% glycerol, 1 mM benzamidine, 0.2 mM PMSF and 0.1% R-mercaptoethanol), KKLNRTLSFAEPG (SEQ ID NO:203) and RRRLSFAEPG (SEQ ID NO:204) (50 mM HEPES pH 7.4) and GGEEEEYFELVKKKK (SEQ ID NO:205) (20 mM MOPS pH 7.0). All kinases were pre-diluted to a 10× working concentration prior to addition into the assay. The composition of the dilution buffer for each kinase is detailed below.

[2] = molecular target: BrSK1(h) (Homo sapiens, UniProt Q8TDC3); details: read-out: percent residual activity of BrSK1(h)
Method: as §1

[3] = molecular target: CK1γ1(h) (Homo sapiens, UniProt Q9HCP0); details: read-out: percent residual activity of CK1γ1(h)
Method: as §1

[4] = molecular target: CK2α2(h) (Homo sapiens, UniProt P19784); details: read-out: percent residual activity of CK2α2(h)
Method: as §1

[5] = molecular target: CLK3(h) (Homo sapiens, UniProt P49761); details: read-out: percent residual activity of CLK3(h)
Method: as §1

[6] = molecular target: CaMKIIδ(h) (Homo sapiens, UniProt Q13557); details: read-out: percent residual activity of CaMKIIδ(h)
Method: as §1

[7] = molecular target: DAPK2(h) (Homo sapiens, UniProt Q9UIK4); details: read-out: percent residual activity of DAPK2(h)
Method: as §1

[8] = molecular target: EGFR(T790M, L858R)(h) (Homo sapiens, UniProt P00533, L858R/T790M); details: read-out: percent residual activity of EGFR(T790M, L858R)(h)
Method: as §1

[9] = molecular target: EphB1(h) (Homo sapiens, UniProt P54762); details: read-out: percent residual activity of EphB1(h)
Method: as §1

[10] = molecular target: GRK6(h) (Homo sapiens, UniProt P43250); details: read-out: percent residual activity of GRK6(h)
Method: as §1

[11] = molecular target: Itk(h) (Homo sapiens, UniProt Q08881); details: read-out: percent residual activity of Itk(h)
Method: as §1

[12] = molecular target: MELK(h) (Homo sapiens, UniProt Q14680); details: read-out: percent residual activity of MELK(h)
Method: as §1

[13] = molecular target: MLK1(h) (Homo sapiens, UniProt P80192); details: read-out: percent residual activity of MLK1(h)
Method: as §1

[14] = molecular target: MST3(h) (Homo sapiens, UniProt Q9Y6E0); details: read-out: percent residual activity of MST3(h)
Method: as §1

[15] = molecular target: NEK3(h) (Homo sapiens, UniProt P51956); details: read-out: percent residual activity of NEK3(h)
Method: as §1

[16] = molecular target: PAK3(h) (Homo sapiens, UniProt O75914); details: read-out: percent residual activity of PAK3(h)
Method: as §1

[17] = molecular target: PASK(h) (Homo sapiens, UniProt Q96RG2); details: for remaining activity at 2.5 µM: read-out: percent residual activity of PASK(h)
Method: as §1

[18] = molecular target: PrKX(h) (Homo sapiens, UniProt P51817); details: read-out: percent residual activity of PrKX(h)
Method: as §1

[19] = molecular target: Rsk4(h) (Homo sapiens, UniProt Q9UK32); details: read-out: percent residual activity of Rsk4(h)
Method: as §1

[20] = molecular target: SRPK1(h) (Homo sapiens, UniProt Q96SB4); details: read-out: percent residual activity of SRPK1(h)
Method: as §1

[21] = molecular target: TSSK1(h) (Homo sapiens, UniProt Q9BXA7); details: read-out: percent residual activity of TSSK1(h)
Method: as §1

[22] = molecular target: WNK2(h) (Homo sapiens, UniProt Q9Y3S1); details: read-out: percent residual activity of WNK2(h)
Method: as §1

[23] = molecular target: cKit(D816H)(h) (Homo sapiens, UniProt P10721, D816H); details: read-out: percent residual activity of cKit(D816H)(h)
Method: as §1

[24] = molecular target: eEF-2K(h) (Homo sapiens, UniProt O00418); details: read-out: percent residual activity of eEF-2K(h)
Method: as §1

Sequence of PASK(h) (Q96RG2 whole entry): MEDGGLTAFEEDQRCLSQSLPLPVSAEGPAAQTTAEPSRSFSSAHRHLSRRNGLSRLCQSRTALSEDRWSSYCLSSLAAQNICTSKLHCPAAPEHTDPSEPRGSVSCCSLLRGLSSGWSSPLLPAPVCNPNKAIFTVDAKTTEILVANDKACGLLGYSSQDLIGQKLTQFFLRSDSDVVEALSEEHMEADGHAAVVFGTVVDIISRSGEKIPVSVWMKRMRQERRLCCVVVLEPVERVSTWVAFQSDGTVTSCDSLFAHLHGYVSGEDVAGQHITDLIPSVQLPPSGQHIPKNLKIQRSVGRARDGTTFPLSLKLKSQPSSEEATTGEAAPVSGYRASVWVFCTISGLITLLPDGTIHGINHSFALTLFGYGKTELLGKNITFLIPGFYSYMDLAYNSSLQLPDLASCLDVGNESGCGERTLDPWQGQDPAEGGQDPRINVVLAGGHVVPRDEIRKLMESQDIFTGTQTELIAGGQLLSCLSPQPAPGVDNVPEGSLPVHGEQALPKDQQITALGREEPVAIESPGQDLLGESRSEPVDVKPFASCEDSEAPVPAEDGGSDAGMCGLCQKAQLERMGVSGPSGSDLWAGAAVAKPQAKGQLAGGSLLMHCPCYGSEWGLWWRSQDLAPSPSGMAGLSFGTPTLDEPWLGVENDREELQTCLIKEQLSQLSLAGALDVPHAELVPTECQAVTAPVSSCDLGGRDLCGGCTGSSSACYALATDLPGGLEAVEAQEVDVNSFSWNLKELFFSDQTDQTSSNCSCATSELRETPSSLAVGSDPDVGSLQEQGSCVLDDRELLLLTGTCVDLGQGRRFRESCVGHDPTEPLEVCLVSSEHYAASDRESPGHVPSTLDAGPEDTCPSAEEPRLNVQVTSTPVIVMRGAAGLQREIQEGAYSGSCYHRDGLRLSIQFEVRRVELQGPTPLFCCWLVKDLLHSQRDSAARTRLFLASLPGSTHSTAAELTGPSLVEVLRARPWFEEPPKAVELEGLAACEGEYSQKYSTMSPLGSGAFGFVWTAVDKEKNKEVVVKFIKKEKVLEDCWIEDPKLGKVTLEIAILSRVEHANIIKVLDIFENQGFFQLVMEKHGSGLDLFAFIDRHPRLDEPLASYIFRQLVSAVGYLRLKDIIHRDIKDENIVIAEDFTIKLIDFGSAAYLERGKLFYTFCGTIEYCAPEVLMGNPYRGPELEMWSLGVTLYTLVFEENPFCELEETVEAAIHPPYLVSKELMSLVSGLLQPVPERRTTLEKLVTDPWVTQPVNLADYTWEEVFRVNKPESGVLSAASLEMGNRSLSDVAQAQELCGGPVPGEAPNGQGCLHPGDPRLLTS
Sequence of BrSK1(h) (Q8TDC3 whole entry): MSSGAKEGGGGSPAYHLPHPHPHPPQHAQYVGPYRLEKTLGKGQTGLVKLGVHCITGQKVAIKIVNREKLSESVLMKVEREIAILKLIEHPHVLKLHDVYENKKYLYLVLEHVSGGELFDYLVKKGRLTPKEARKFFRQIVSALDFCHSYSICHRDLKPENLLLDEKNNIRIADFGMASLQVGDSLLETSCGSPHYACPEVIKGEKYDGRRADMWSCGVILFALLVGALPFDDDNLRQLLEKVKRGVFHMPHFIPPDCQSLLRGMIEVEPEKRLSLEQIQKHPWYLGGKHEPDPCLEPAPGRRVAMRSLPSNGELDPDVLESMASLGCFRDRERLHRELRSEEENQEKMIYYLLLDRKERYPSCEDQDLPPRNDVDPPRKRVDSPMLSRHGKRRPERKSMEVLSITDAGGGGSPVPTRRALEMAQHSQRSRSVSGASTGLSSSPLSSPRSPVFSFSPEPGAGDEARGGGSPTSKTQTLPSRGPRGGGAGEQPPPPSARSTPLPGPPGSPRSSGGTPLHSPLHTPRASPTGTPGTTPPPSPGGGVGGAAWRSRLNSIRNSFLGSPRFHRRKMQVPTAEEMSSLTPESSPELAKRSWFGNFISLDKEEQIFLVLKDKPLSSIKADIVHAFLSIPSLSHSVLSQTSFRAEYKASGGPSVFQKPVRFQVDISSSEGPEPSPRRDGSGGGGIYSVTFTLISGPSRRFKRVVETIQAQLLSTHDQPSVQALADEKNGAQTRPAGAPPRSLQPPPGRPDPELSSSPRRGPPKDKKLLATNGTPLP
Sequence of PAK3(h) (O75914 whole entry): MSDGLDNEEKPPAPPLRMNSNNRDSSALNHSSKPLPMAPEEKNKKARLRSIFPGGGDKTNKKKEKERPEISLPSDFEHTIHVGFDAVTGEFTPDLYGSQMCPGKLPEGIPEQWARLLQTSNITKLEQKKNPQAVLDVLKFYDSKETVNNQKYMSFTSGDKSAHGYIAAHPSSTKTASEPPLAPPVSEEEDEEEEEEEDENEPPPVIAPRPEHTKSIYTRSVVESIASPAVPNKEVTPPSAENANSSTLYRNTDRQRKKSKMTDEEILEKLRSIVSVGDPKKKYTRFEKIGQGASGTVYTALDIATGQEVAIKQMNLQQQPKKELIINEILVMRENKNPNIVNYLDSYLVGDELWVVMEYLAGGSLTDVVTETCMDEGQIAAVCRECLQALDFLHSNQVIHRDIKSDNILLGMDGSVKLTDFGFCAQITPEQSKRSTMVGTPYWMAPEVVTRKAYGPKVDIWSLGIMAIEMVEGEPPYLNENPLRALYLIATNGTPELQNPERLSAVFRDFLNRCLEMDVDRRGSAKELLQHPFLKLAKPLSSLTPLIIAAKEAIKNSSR
Sequence of TSSK1(h) (Q9BXA7 whole entry): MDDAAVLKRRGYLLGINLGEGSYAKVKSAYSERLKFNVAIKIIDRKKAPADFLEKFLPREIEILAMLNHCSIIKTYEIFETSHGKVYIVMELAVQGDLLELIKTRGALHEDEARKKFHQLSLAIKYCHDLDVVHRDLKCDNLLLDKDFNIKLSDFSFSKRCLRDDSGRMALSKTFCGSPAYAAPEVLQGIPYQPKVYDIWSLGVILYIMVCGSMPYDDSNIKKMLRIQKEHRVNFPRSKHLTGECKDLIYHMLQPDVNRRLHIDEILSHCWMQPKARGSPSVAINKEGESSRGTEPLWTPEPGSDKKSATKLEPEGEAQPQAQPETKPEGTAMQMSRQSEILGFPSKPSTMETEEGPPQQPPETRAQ
Sequence of CK2α2(h) (P19784 whole entry): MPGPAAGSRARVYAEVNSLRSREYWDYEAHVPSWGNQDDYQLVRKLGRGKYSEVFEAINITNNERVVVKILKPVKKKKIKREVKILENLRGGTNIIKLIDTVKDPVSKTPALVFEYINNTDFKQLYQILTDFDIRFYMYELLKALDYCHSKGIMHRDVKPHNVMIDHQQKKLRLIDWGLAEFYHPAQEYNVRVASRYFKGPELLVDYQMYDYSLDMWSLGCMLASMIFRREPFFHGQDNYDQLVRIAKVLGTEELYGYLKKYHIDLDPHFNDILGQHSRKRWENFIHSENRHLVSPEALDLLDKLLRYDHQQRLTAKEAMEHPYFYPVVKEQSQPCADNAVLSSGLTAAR
Sequence of GRK6(h) (P43250 whole entry): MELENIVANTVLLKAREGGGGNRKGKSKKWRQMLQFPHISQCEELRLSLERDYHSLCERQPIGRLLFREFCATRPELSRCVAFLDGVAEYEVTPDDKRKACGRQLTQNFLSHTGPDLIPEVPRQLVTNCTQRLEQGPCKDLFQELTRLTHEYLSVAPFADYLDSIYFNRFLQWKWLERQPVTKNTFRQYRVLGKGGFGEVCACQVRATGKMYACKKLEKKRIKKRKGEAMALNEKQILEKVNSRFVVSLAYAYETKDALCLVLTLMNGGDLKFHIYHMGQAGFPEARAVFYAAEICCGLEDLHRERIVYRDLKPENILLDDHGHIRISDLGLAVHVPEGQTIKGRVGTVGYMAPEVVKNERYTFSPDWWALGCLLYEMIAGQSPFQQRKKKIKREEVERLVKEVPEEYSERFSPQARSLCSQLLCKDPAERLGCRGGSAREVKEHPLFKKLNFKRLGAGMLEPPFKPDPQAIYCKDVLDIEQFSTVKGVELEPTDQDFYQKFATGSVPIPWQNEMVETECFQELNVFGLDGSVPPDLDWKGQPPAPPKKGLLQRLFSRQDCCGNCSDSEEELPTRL
Sequence of CK1γ1(h) (Q9HCP0 whole entry): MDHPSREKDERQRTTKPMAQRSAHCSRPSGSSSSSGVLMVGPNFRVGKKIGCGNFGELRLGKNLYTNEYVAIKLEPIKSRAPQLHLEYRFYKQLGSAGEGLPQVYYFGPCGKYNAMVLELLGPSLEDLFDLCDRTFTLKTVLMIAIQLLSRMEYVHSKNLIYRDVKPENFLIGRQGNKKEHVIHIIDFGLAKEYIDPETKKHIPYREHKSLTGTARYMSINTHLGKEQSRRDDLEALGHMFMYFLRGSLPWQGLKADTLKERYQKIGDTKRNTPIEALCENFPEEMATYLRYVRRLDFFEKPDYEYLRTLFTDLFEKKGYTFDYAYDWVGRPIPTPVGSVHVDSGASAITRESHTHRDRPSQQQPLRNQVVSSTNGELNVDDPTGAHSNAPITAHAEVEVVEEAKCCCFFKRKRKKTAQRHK
Sequence of DAPK2(h) (Q9UIK4 whole entry): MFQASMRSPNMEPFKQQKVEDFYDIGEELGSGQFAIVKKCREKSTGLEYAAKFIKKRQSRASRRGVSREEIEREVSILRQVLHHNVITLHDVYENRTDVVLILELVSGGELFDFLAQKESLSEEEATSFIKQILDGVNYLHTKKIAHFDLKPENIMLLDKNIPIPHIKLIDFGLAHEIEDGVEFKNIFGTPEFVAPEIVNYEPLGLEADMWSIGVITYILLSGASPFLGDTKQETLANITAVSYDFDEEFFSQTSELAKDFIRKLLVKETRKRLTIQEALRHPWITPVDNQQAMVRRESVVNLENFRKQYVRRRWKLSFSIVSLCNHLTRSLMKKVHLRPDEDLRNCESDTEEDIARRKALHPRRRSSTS

remaining activity at 2.5 µM [1]	remaining activity at 2.5 µM [2]	remaining activity at 2.5 µM [3]	remaining activity at 2.5 µM [4]	remaining activity at 2.5 µM [5]	remaining activity at 2.5 µM [6]	remaining activity at 2.5 µM [7]	remaining activity at 2.5 µM [8]	remaining activity at 2.5 µM [9]	remaining activity at 2.5 µM [10]	remaining activity at 2.5 µM [11]	remaining activity at 2.5 µM [12]	remaining activity at 2.5 µM [13]	remaining activity at 2.5 µM [14]	remaining activity at 2.5 µM [15]	remaining activity at 2.5 µM [16]	remaining activity at 2.5 µM [17]	remaining activity at 2.5 µM [18]	remaining activity at 2.5 µM [19]	remaining activity at 2.5 µM [20]	other results	SMILES
79%	99%	90%	115%	84%	88%	109%	93%	125%	90%	117%	40%	85%	45%	94%	88%	10%	75%	69%	91%	inhibition at 2.5 µM [17]: > 80%; remaining activity at 2.5 µM [21]: 98%; remaining activity at 2.5 µM [22]: 97%; remaining activity at 2.5 µM [23]: 73%; remaining activity at 2.5 µM [24]: 96%	CN1CCCC1CCNC(=O)c1cn2c3c(c(N4CCC(c5cnccn5)C4)c(F)cc3c1=O)Oc1cc3ccccc3cc1-2 (stereo not shown) [Compound A-1]
104%	107%	100%	116%	96%	96%	102%	99%	75%	83%	102%	94%	86%	110%	118%	91%	100%	96%	94%	99%	remaining activity at 2.5 µM [21]: 107%; remaining activity at 2.5 µM [22]: 108%; remaining activity at 2.5 µM [23]: 92%; remaining activity at 2.5 µM [24]: 98%	CC(=O)N1CCN(c2ccc3c(=O)c(C(=O)NCCN4CCCC4)c4n(C)c5ccccc5n4c3n2)CC1 [Compound B-1]
